Laboratory results taken from ChEMBL document CHEMBL4265996, “Genetically-encoded fragment-based discovery of glycopeptide ligands for DC-SIGN” (Bioorg Med Chem, 2018).
Blank lines part the entries; values can stand above or below the compound they belong to. Calls of active or inactive are those of the source. The rule behind the calls is not given here. Where a SMILES comes first, the peptide text is derived from it. The star is where a group is joined. X1 = O=C(/C=N/O[C@H]1O[C@H](CO)[C@@H](O)[C@H](O)[C@@H]1O)*; X2 = O=C(/C=N/O[C@H]1O[C@H](CO)[C@H](O)[C@H](O)[C@H]1O)*

Key:
CD209 antigen [1] = target: T1, CD209 antigen (Homo sapiens, UniProt Q9NNX6); test: Inhibition of binding of trimannoside containing horseradish peroxidase to DC-SIGN carbohydrate binding domain (unknown origin) expressed in Escherichia coli preincubated for 1 hr followed by TMB substrate addition measured after 30 mins by ELISA
T1 sequence (Q9NNX6 whole entry): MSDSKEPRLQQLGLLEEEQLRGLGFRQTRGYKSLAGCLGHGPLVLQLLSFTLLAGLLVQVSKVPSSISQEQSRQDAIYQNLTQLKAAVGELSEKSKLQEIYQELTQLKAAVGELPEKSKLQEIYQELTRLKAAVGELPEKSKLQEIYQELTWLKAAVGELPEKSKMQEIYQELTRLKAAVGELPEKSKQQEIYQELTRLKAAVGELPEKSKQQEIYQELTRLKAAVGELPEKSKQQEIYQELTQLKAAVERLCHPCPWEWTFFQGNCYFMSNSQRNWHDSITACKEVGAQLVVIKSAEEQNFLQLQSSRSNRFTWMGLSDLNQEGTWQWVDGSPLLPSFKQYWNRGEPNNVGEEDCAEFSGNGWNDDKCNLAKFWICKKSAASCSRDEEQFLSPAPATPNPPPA

[2] = target: C-type lectin domain family 4 member K (Homo sapiens) (UniProt Q9UJ71); test: Binding affinity to human langerin expressed in human Raji cells preincubated with Cy5 conjugated compound for 2 hrs followed by washing and measured by flow cytometric analysis; type: cell-based
[3] = Binding affinity to ConA […] after 1 hr by ELISA
CD209 antigen [4] = target: T1, CD209 antigen; test: Binding affinity to DC-SIGN extracellular domain (unknown origin) expressed in Escherichia coli after 1 hr by ELISA
[5] = target: T2, CD209 antigen (Homo sapiens) (UniProt Q9NNX6); test: Binding affinity to recombinant human DC-SIGN expressed in rat-6 fibroblast preincubated with Cy5 conjugated compound for 2 hrs followed by washing and measured by flow cytometric analysis
T2 sequence (whole entry): T1 sequence (Q9NNX6 whole entry)

[6] = target: T2, CD209 antigen (Homo sapiens); test: Binding affinity to recombinant human DC-SIGN expressed in human Raji cells preincubated with Cy5 conjugated compound for 2 hrs followed by washing and measured by flow cytometric analysis; type: cell-based

Sequence of C-type lectin domain family 4 member K (Homo sapiens) (Q9UJ71 whole entry, the tested form may be a part): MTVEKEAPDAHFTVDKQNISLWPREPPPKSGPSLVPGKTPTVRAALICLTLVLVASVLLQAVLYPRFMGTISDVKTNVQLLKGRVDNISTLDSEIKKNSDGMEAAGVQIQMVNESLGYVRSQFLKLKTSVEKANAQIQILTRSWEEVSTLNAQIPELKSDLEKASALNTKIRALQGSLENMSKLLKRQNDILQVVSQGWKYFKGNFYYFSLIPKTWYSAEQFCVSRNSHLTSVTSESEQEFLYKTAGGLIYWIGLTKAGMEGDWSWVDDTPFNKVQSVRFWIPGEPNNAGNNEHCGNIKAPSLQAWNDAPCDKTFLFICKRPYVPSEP

Compound: OC[C@H]1O[C@H](O)[C@@H](O)[C@@H](O)[C@@H]1O
IC50 (CD209 antigen [1]): 6400 µM

Compound: [N-]=[N+]=NCCCCCCO[C@H]1O[C@H](CO[C@H]2O[C@H](CO)[C@@H](O)[C@H](O)[C@@H]2O)[C@@H](O)[C@H](O[C@H]2O[C@H](CO)[C@@H](O)[C@H](O)[C@@H]2O)[C@@H]1O
IC50 (CD209 antigen [1]): 1400 µM

Compound: CSCC[C@H](NC(=O)/C=N/O[C@H]1O[C@H](CO)[C@@H](O)[C@H](O)[C@@H]1O)C(=O)N1CCC[C@H]1C(=O)N[C@@H](C)C(=O)N[C@@H](Cc1c[nH]c2ccccc12)C(=O)N[C@@H](CCCNC(=N)N)C(=O)N[C@@H](Cc1cnc[nH]1)C(=O)N[C@@H](C)C(N)=O (X1-MPAWRHA-NH2)
Activity [2]: inactive
EC50 [3]: > 1 ×10¹¹ PFU
EC50 (CD209 antigen [4]): 4 ×10⁸ PFU
Activity [5]: Active
Activity [6]: Active

Compound: CC[C@H](C)[C@H](NC(=O)[C@H](CO)NC(=O)/C=N/O[C@H]1O[C@H](CO)[C@@H](O)[C@H](O)[C@@H]1O)C(=O)N[C@H](C(=O)N[C@@H](Cc1cnc[nH]1)C(=O)N[C@@H](C)C(=O)N1CCC[C@H]1C(=O)N[C@@H](CO)C(N)=O)[C@@H](C)O (stereo in doubt)
IC50 (CD209 antigen [1]): 450 µM

More lines, now with the values ahead:

EC50 [3]: > 1 ×10¹¹ PFU
EC50 (CD209 antigen [4]): 2.6 ×10¹¹ PFU
Activity [5]: inactive
Compound: CC(C)[C@H](NC(=O)/C=N/O[C@H]1O[C@H](CO)[C@@H](O)[C@H](O)[C@@H]1O)C(=O)N[C@@H](CCC(=O)O)C(=O)N[C@@H](CCCCN)C(=O)N[C@@H](CC(N)=O)C(=O)N[C@@H](CC(=O)O)C(=O)N[C@@H](CCC(N)=O)C(=O)N[C@@H](CCCCN)C(=O)N[C@H](C(=O)N[C@@H](Cc1ccc(O)cc1)C(=O)N[C@@H](Cc1cnc[nH]1)C(=O)N[C@@H](C)C(N)=O)[C@@H](C)O (X1-VEKNDQKTYHA-NH2)

EC50 (CD209 antigen [4]): 3.7 ×10¹⁰ PFU
Compound: CSCC[C@H](NC(=O)/C=N/O[C@H]1O[C@H](CO)[C@H](O)[C@H](O)[C@H]1O)C(=O)N1CCC[C@H]1C(=O)N[C@@H](C)C(=O)N[C@@H](Cc1c[nH]c2ccccc12)C(=O)N[C@@H](CCCNC(=N)N)C(=O)N[C@@H](Cc1cnc[nH]1)C(=O)N[C@@H](C)C(N)=O (X2-MPAWRHA-NH2)

EC50 (CD209 antigen [4]): 2 ×10¹¹ PFU
Compound: CC(C)[C@H](NC(=O)/C=N/O[C@H]1O[C@H](CO)[C@H](O)[C@H](O)[C@H]1O)C(=O)N[C@@H](CCC(=O)O)C(=O)N[C@@H](CCCCN)C(=O)N[C@@H](CC(N)=O)C(=O)N[C@@H](CC(=O)O)C(=O)N[C@@H](CCC(N)=O)C(=O)N[C@@H](CCCCN)C(=O)N[C@H](C(=O)N[C@@H](Cc1ccc(O)cc1)C(=O)N[C@@H](Cc1cnc[nH]1)C(=O)N[C@@H](C)C(N)=O)[C@@H](C)O (X2-VEKNDQKTYHA-NH2)

EC50 [3]: > 1 ×10¹¹ PFU
EC50 (CD209 antigen [4]): 2.8 ×10⁹ PFU
Compound: CC[C@H](C)[C@H](NC(=O)[C@H](CO)NC(=O)[C@H](CO)NC(=O)/C=N/O[C@H]1O[C@H](CO)[C@@H](O)[C@H](O)[C@@H]1O)C(=O)N[C@H](C(=O)N[C@@H](Cc1cnc[nH]1)C(=O)N[C@@H](C)C(=O)N1CCC[C@H]1C(=O)N[C@@H](CO)C(N)=O)[C@@H](C)O (stereo in doubt)

EC50 [3]: 2.9 ×10⁹ PFU
Compound: CC(C)C[C@H](NC(=O)[C@H](CC(=O)O)NC(=O)[C@H](Cc1ccc(O)cc1)NC(=O)[C@H](Cc1c[nH]c2ccccc12)NC(=O)/C=N/OCCO[C@H]1O[C@H](CO)[C@@H](O)[C@H](O)[C@@H]1O)C(=O)N[C@@H](Cc1ccc(O)cc1)C(=O)N[C@@H](Cc1cnc[nH]1)C(N)=O (stereo in doubt)
